# Measured values: patent publication US8604195B2, “Substituted bicyclic piperidinyl- and piperazinyl-sulfonamides useful to inhibit 11β-hydroxysteroid dehydrogenase type-1” (Merck Sharp & Dohme Corp., priority 2007, dated 2013)
# How the values were obtained:
# Mouse 11-β-HSD1 = Mouse 11-β-HSD1 (Mus musculus, UniProt P50172); assay: 11β-HSD1 enzymatic activity, 3H-cortisone SPA, mouse enzyme; settings: Mouse 11-β-HSD1 IC50 (nM), membrane, 125 nM 3H-cortisone, 1 hr room temperature
# Protocol: (§1) The reaction was incubated at room temperature for 1 hr before it was stopped by addition of 50 μM buffer containing 20 mM NaPO4 pH 7.5, 30 μM 18β-glycyrrhetinic acid, 1 μg/ml monoclonal anti-cortisol antibody (Biosource) and 2 mg/ml anti-mouse antibody coated scintillation proximity assay (SPA) beads (Amersham Bioscience). The mixture was incubated at room temperature for 2 hrs with vigorous shaking and analyzed on TopCount scintillation counter.
# Human 11-β-HSD1 = Human 11-β-HSD1 (Homo sapiens, UniProt P28845); assay: 11β-HSD1 enzymatic activity, 3H-cortisone SPA, human enzyme; settings: Human 11-β-HSD1 IC50 (nM), membrane, 125 nM 3H-cortisone, 1 hr room temperature
# Chain of Human 11-β-HSD1 (P28845 whole entry): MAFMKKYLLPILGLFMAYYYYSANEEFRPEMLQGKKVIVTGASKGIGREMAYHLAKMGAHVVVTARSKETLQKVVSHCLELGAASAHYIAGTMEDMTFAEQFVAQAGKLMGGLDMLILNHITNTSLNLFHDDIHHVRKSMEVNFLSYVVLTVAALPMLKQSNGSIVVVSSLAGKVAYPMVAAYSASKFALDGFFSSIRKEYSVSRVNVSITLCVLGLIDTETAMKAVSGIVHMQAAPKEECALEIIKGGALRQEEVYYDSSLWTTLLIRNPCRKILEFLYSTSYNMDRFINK
# Protocol: as §1
# Chain of Mouse 11-β-HSD1 (P50172 whole entry): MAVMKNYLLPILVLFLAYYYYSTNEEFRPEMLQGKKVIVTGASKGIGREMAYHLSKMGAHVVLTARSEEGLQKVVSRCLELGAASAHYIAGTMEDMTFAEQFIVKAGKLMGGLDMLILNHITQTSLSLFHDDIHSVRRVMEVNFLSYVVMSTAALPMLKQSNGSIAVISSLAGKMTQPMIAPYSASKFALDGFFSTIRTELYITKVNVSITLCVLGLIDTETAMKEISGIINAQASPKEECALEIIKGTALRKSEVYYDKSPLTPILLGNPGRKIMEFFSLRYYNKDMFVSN
SMILES,IC50 (Mouse 11-β-HSD1) [nM],IC50 (Human 11-β-HSD1) [nM]
"CC(C)(C)c1ccc(S(=O)(=O)N2C3CCC2CC(Oc2ccc(C#N)cn2)C3)cc1 (single isomer, unassigned) [Compound 5]",23800,> 10000
"CC(C)(C)c1ccc(S(=O)(=O)N2C3CCC2CC(Oc2ccc(C#N)cn2)C3)cc1 (single isomer, unassigned) [Compound 6]",5590,413
CC(C)(C)c1ccc(S(=O)(=O)N2C3CCC2CC(O)(Cc2ccccc2)C3)cc1 (stereo not drawn) [Compound 15],114,740
CC(C)(C)c1ccc(S(=O)(=O)N2C3CCC2CC(O)(c2ccccc2)C3)cc1 (stereo not drawn) [Compound 16],138,–
CCC(C)(C)c1ccc(S(=O)(=O)N2C[C@@H]3C[C@H]2CN3C)cc1 [Compound 21],258,333
